Measured values: PMC11500415, “Chemical inhibition of stomatal differentiation by perturbation of the master-regulatory bHLH heterodimer via an ACT-Like domain” (Nature Communications, 2024)

Legend:
Experiment in all cases: ITC direct binding
Parameters in all cases: species or system A. thaliana
[1] = molecular target: T1, FAMA_ACTL (Arabidopsis thaliana, UniProt Q56YJ8)
T1 construct: FAMA-ACTL (306-414); GST (N, cleaved yes); made in house; host or cells: E. coli BL21
Description: (§1) A. thaliana SCRM (1-494), ΔNSPCH (98-364), MUTE (1-202), ΔNFAMA (190-414), MUTEΔC (1-114), MUTER133A_R134A, MUTEE162A_E163A, MUTER133A_R134A_E162A_E163A, SCRM-ACTL (405-494), MUTE-ACTL (114-202), SPCH-ACTL (285-364), FAMA-ACTL (306-414), MUTE_ACTLR133A_R134A, MUTE_ACTLE162A_E163A, MUTE_ACTLR133A_R134A_E162A_E163A were cloned into pGEX-4T-1 vector with an N-terminal GST tag and a thrombin cleavage sequence. For protein expression, the constructs were transformed into E. coli strain BL21. For each transformant, a single colony was selected and incubated in 10 ml LB liquid media. The overnight-incubated E. coli suspensions were transferred to 1 L LB medium and incubated at 37 °C for around 2 h until the OD600 reached 0.4–0.6. The isopropyl β-D-1-thiogalactopyranoside ([…] of final concentration) was added to the cultures and the strains were incubated at 22 °C for a further 18 h. GST-fused proteins were purified using glutathione agarose resin. The soluble portion of the cell lysate was loaded onto a GST-Sepharose column. Nonspecifically bound proteins were removed by washing the column with 20 mM Tris pH 8.0, 200 mM NaCl. The bound GST-fused protein was eluted with 10 mm glutathione and 20 mM Tris pH 8.0, 200 mM NaCl. The GST-fused proteins were exchanged with phosphate-buffered saline buffer, and then the solution was treated with 50 μg of thrombin for 10–12 h at 16 ^οC. The GST portion of the protein was cleaved during thrombin digestion, and then the whole solution was reloaded onto the glutathione S-transferase column to obtain pure protein. The purified proteins were further purified by gel filtration on a Superdex-200 (GE) column using fast protein liquid chromatography and phosphate buffer (pH 7.2) as the eluent. The purity of the protein was checked by SDS-PAGE. For detailed lists of oligo DNA and plasmid information, see Supplementary Tables 5, 6, respectively.
(§2) Binding of the small molecule Stomidazolone (3) to SCRM, MUTE, SPCH, FAMA, MUTEΔC, MUTE_ACTL, SCRM_ACTL, SPCH_ACTL and FAMA_ACTL, MUTER133A_R134A, MUTEE162A_E163A, MUTER133A_R134A_E162A_E163A, as well as SCRM binding to MUTE in the presence and absence of Stomidazolone (3) / AYSJ1059 (5) /AYSJ1061 (6) was characterized at 30 °C using a Malvern PEAQ-ITC microcalorimeter. All the protein samples were dialyzed overnight using PBS buffer containing 2% DMSO and 1 mM DTT. Stomidazolone was dissolved in PBS buffer containing 2% DMSO and 1 mM DTT. Titrations were performed by injecting 1 × 0.5-μL and 12 × 3-μL or 1 × 0.75-μL and 18 × 2-μL or 1 × 0.2-μL and 25 × 1.3-μL aliquots of 1 mM Stomidazolone / AYSJ1059 / AYSJ1061 to 5-30 μM of protein in PBS buffer pH 7.4, containing 2% DMSO and 1 mM DTT. All titrations were carried out at least twice. The raw data were corrected using buffer and protein controls and analyzed using the software supplied by the manufacturer. See Supplementary Table 3 for details.

[2] = molecular target: T2, MUTE (Arabidopsis thaliana, UniProt Q9M8K6)
T2 construct: MUTE (1-202); made in house; host or cells: E. coli BL21
Description: as §1, §2

[3] = molecular target: T3, MUTE_ACTLR133A_R134A (Arabidopsis thaliana, UniProt Q9M8K6, R133A/R134A); settings: MUTE_ACTL R133A_R134A
T3 construct: MUTE-ACTL (114-202); made in house; host or cells: E. coli BL21
Description: as §1, §2

[4] = molecular target: T4, SCRM (Arabidopsis thaliana, UniProt Q9LSE2)
T4 construct: SCRM (1-494); made in house; host or cells: E. coli BL21
T4 sequence (Q9LSE2 1-494): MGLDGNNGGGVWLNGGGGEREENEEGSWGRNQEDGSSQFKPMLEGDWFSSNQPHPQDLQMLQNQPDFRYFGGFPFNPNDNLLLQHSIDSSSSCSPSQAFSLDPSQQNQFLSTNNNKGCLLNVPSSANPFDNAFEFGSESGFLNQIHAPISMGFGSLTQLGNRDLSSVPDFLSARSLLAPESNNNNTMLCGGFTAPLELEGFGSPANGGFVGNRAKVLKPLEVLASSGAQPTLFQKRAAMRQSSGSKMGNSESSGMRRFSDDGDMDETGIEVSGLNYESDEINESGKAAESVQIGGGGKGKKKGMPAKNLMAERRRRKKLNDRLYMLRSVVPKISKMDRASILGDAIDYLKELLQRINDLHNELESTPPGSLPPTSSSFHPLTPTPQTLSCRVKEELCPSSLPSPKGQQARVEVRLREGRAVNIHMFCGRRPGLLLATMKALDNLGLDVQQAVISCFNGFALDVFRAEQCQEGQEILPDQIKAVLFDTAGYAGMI
Description: as §1, §2

[5] = molecular target: T5, SCRM_ACTL (Arabidopsis thaliana, UniProt Q9LSE2)
T5 construct: SCRM-ACTL (405-494); GST (N, cleaved yes); made in house; host or cells: E. coli BL21
T5 sequence (Q9LSE2 405-494): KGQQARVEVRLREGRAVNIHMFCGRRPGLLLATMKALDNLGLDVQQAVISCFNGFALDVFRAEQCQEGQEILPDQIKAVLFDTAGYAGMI
Description: as §1, §2

[6] = molecular target: T6, SPCH_ACTL (Arabidopsis thaliana, UniProt Q700C7)
T6 construct: SPCH-ACTL (285-364); GST (N, cleaved yes); made in house; host or cells: E. coli BL21
Description: as §1, §2

T3 sequence (Q9M8K6 114-202 R133A/R134A): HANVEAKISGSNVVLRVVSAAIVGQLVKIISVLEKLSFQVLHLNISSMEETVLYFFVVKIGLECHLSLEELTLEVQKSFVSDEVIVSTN
T2 sequence (Q9M8K6 whole entry): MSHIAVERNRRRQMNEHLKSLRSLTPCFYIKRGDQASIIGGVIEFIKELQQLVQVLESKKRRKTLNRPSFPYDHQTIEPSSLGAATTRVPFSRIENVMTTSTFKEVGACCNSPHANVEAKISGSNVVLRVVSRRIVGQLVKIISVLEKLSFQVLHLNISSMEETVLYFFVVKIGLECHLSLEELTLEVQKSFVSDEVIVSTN
T1 sequence (Q56YJ8 306-414): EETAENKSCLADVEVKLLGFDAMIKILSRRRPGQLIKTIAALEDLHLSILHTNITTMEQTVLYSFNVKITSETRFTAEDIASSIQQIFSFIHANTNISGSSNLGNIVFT
T6 sequence (Q700C7 285-364): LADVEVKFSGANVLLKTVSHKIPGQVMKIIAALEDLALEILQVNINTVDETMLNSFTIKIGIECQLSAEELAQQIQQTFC

SMILES: O=C1C(c2ccccc2)=NC(NS(=O)(=O)c2ccccc2)(c2ccccc2)N1S(=O)(=O)c1ccccc1 (centres unmarked) [Stomidazolone]
- -T△S [1]: 4.8 ± 0.2
- Kd [1]: 110 ± 13.8 µM
- △H [1]: -8.2 ± 0.5
- -T△S [2]: 17.3 ± 0.4
- Kd [2]: 7.8 ± 1.1 µM
- △G [2]: -3.3 ± 0.2
- △H [2]: -20.6 ± 0.4
- -T△S [3]: 5.1 ± 0.2
- Kd [3]: 127 ± 28.5 µM
- △G [3]: -3.8 ± 0.2
- △H [3]: -8.9 ± 0.4
- -T△S [4]: 4.1 ± 0.2
- Kd [4]: 71.5 ± 5.1 µM
- △G [4]: -4.8 ± 0.2
- △H [4]: -8.9 ± 0.2
- -T△S [5]: 6.1 ± 0.2
- Kd [5]: 78.4 ± 5.1 µM
- △G [5]: -3.2 ± 0.2
- △H [5]: -9.3 ± 0.4
- -T△S [6]: 3.4 ± 0.2
- Kd [6]: 96.8 ± 7.6 µM
- △G [6]: -2.1 ± 0.2
- △H [6]: -5.5 ± 0.3
